Measurements published in patent publication US20040156742A1, “Synergistically-effective cyclohexylethan-1-yl ester mixtures as malodour counteractants as measured physiologically and psychometrically and methods for using same” (priority 2003, published 2004).

Experiment: Adaptation curves: % odour pulses correctly identified versus inter-stimulus interval (FIGS. 9C, 9D)
Type: in vivo, human
Settings: pulse length 200 microseconds
Text: as it applies to individual malodour molecules and individual fragrance molecules is set forth in Jacob et al., “Psychometric Evaluation of Responses to Pleasant and Malodour Stimulation in Human Subjects; Adaptation, Dose Response and Gender Differences”, Int. J. Psychophysiology, (2003). An additional discussion of the model as it applies to olfaction is set forth in Wang et al., “The correlation between physiological and psychological responses to odor stimulation in human subjects” Clinical Neurophysiology 113 (2002) 542-551 at page 546.
wherein Z is the percentage of odour pulses correctly identified;
Y is the pulse duration, or “pulse length” measured in units of microseconds; and
X is the inter-stimulus interval, “ISI”, measured in units of seconds.
FIG. 9C is a set of adaptation curves for the malodour, n-butyric acid, with the vertical axis being the “Z” axis, indicated by reference numeral 90C and the horizontal axis being the “X” axis indicated by reference numeral 92C. The graph indicated by reference numeral 97C and data points therefor 970C is for a pulse length of 35 microseconds. The graph indicated by reference numeral 96C and data points therefor 960C is for a pulse length of 50 microseconds. The graph indicated by reference numeral 95C and data points therefor 950C is for a pulse length of 75 microseconds. […]

SMILES | percentage of odour pulses correctly identified, Z (point 990D on curve 93D: inter-stimulus interval X1=15 seconds, FIG. 9D) [%] | percentage of odour pulses correctly identified, Z (point 990C on curve 93C: inter-stimulus interval X1=12 seconds, FIG. 9C) [%]
CCCCCOC(C)=O [amyl acetate] | 54 | –
CCCC(=O)O [n-butyric acid] | – | 75
